Data: patent US6872195B2, “Chlorhexidine-containing medical devices” (The Trustees of Columbia University in the City of New York, priority 1996, dated 2005)

Experiments:
[1] = tested on: Staphylococcus aureus; test: One-minute kill in bacterial culture (colony counts); type: cell-based; details: for CFU/ml (1 minute kill): TSB + 20% BCS, 10^7 CFU inoculum; for decrease in CFU: 500 micrograms per milliliter, 1 minute
Description: Various concentrations of chlorhexidine diacetate (“CHA”) and/or triclosan (“TC”) were dispensed in 1.0 ml trypticase soy broth (“TSB”) containing 20 percent bovine calf serum (“BCS”) and inoculated with 10^7 colony-forming units (“CFU”) of Staphylococcus aureus. After one minute, the cultures were diluted with drug-inactivating medium (1:100 dilution in LTSB drug inactivating medium, which is 5% Tween 80, 2% lecithin, 0.6% sodium oleate, 0.5% sodium thiosulfate, 0.1% protease peptone and 0.1% tryptone) and 0.2 ml of the diluted culture was subcultured on a trypticase soy agar plate for the determination of colony counts.

[2] = Solubility observation; type: physicochemical; details: water or alcohol
Text: When relatively soluble chlorhexidine salts such as chlorhexidine acetate (CHA) were used to impregnate catheters, the release was undesirably rapid. We investigated the use of CHX as a substitute for CHA.

CC(=O)O.CC(=O)O.NC(=N\CCCCCC/N=C(N)/N=C(\N)Nc1ccc(Cl)cc1)/N=C(\N)Nc1ccc(Cl)cc1 [CHA, chlorhexidine diacetate]
CFU/ml (1 minute kill) ([1]; 500 μg/ml): 6.0 × 10^5 CFU/ml | CFU/ml (1 minute kill) ([1]; 1000 μg/ml): 5.0 × 10^4 CFU/ml | CFU/ml (1 minute kill) ([1]; 2000 μg/ml): 2.1 × 10^3 CFU/ml | decrease in CFU [1]: approximately 17 fold

N=C(NCCCCCCNC(=N)NC(=N)Nc1ccc(Cl)cc1)NC(=N)Nc1ccc(Cl)cc1 [CHX, chlorhexidine free base]
solubility [2]: not soluble

Oc1cc(Cl)ccc1Oc1ccc(Cl)cc1Cl [TC, 2,4,4′-trichloro-2′-hydroxydiphenyl ether]
CFU/ml (1 minute kill) ([1]; 250 μg/ml): 2.0 × 10^5 CFU/ml | CFU/ml (1 minute kill) ([1]; 500 μg/ml): 4.2 × 10^3 CFU/ml | decrease in CFU [1]: approximately 2400 fold
